According to patent US20240287082A1, “NEW BENZODIAZEPINE DERIVATIVES AS GABA A GAMMA1 PAM” (Hoffmann-La Roche Inc., priority 2021, published 2024):
Like-named read-outs stand apart in the source and are kept apart here.

Tests used:
[1] = biological target: human GABAA α5β2γ1 receptor (Homo sapiens (Human), UniProt P31644+Q8N1C3); assay: Radioligand binding assay, competition for [3H]RO7239181, γ1-containing GABAA subtype α5β2γ1
[2] = biological target: h-GABA-A α2β2γ1 (Homo sapiens (Human), UniProt P47869+Q8N1C3); assay: Two-electrode voltage clamp electrophysiology in Xenopus oocytes expressing GABAA receptors, modulation of GABA EC20 current; type: cell-based; conditions: for Efficacy (GABA) %: % modulation of GABA EC20 = 100*(Fold increase−1), compound at 30-fold Ki α2β2γ1; for Fold increase h-GABA-A α2β2γ1 oocyte @ 30-fold Ki: Xenopus oocytes, GABA EC20, test compound at approx. 30-fold its Ki α2β2γ1

For C[C@@H]1N=C(c2c(F)cccc2F)c2c(ccc(C(F)(F)F)c2Cl)-n2ccc(=O)nc21 [Example 10, (5S)-8-chloro-7-(2,6-difluorophenyl)-5-methyl-9-(trifluoromethyl)-5H-pyrimido[1,2-a][1,4]benzodiazepin-3-one], the Ki [1] was 3 nM, the “Efficacy (GABA) %” value [2] was 164% and the “Fold increase h-GABA-A α2β2γ1 oocyte @ 30-fold Ki” value [2] was 2.64.

For C[C@@H]1N=C(c2c(F)cccc2F)c2c(ccc(Cl)c2Cl)-n2ccc(=O)nc21 [Example 4, (5S)-8,9-dichloro-7-(2,6-difluorophenyl)-5-methyl-5H-pyrimido[1,2-a][1,4]benzodiazepin-3-one], the Ki [1] was 1.5 nM, the “Efficacy (GABA) %” value [2] was 105% and the “Fold increase h-GABA-A α2β2γ1 oocyte @ 30-fold Ki” value [2] was 2.05.

For C[C@@H]1N=C(c2c(F)cccc2F)c2c(ccc(C(F)(F)F)c2Cl)-n2cc(C(=O)NC3CC3)c(=O)nc21 [Example 28, (5S)-8-chloro-N-cyclopropyl-7-(2,6-difluorophenyl)-5-methyl-3-oxo-9-(trifluoromethyl)-5H-pyrimido[1,2-a][1,4]benzodiazepine-2-carboxamide], the Ki ([1]; membranes of HEK293F cells, [3H]RO7239181 1.5 nM, mean of two determinations, read-out: Ki h-GABAA α5β2γ1) was 7.4 nM, the “Efficacy (GABA) %” value [2] was 35% and the “Fold increase h-GABA-A α2β2γ1 oocyte @ 30-fold Ki” value [2] was 1.35.
